Measured values taken from patent publication US20240239729A1, “Functionalization of Lightly Branched Olefin Oligomers” (priority 2021, published 2024).

Assays:
Assay type in all cases: physicochemical
[1] = Critical micelle concentration in water (Kruss K100 tensiometer)
Experimental: Critical micelle concentrations in water were measured using an A Kruss Laboratory K100 tensiometer. CMC values were determined using the K100 instrument's fully automated measurement method, as described further in the K100 instrument's operating manual.

[2] = Calcium tolerance (hard water tolerance), surfactant remaining in filtrate by HPLC-ELSD; details: 25° C.; 450 ppm surfactant, 420 ppm cations (3:1 Ca2+:Mg2+), stood overnight, 0.22 μm filtrate
Experimental: Calcium tolerance was measured at 25° C. using the following procedure. A surfactant solution containing 450 ppm of alcohol sulfate surfactant and 420 ppm cations (3:1 Ca^2+:Mg^2+) was prepared and allowed to stand overnight. Crystals formed during this time. The supernatant liquid was removed and passed through a 0.22 μm filter to provide a filtrate. The filtrate was then analyzed for surfactant residue. Analysis of the surfactant and salt residue was performed using an Agilent 1100 HPLC combined with SEDEX 75 evaporative light scattering detector (ELSD) using the run conditions specified in Table 4 below. Peak height was utilized to analyze surfactant concentration. Some samples were repeated in triplicate. Calcium tolerance results are specified in Table 5 below.

[3] = Solubility in water at 25° C. by visual observation; details: 2-3 hours magnetic stirring
Experimental: Solubility measurements were conducted in water at 25° C. Solubility was determined through visual observation after 2-3 hours of magnetic stirring of surfactant solutions having variable concentrations.

SMILES | CMC [1] [g/g] | Calcium tolerance (ppm surfactant remaining) [2] [ppm] | Solubility at 25° C., (Wt. %) [3] [% Wt. %]
CCCC(C)CCCC(C)CCCOS(=O)(=O)O (stereo not shown) [Entry 8, 4,8-dimethylundecan-1-sulfate] | 0.00129 | – | –
CCCCCCCCCCCCCOS(=O)(=O)[O-].[Na+] [Entry 5, Sodium n-Tridecyl Sulfate] | 0.001 | 11.2 | <0.5
